{
  "source": "paper PMC7707092",
  "about": "“Discovery and characterization of ORM‐11372, a novel inhibitor of the sodium‐calcium exchanger with positive inotropic activity” (British Journal of Pharmacology, 2020)",
  "key": {"[1]": {"target": "T1, L‐type Ca^2+ channel current (I CaL) (Rattus norvegicus, UniProt P22002)", "T1 construct": "the inward calcium current (ICaL) in isolated rat cardiomyocytes; endogenous in cells; host or cells: freshly isolated left ventricular cardiomyocytes of male Wistar rats", "T1 sequence (P22002 whole entry, other chains not shown)": "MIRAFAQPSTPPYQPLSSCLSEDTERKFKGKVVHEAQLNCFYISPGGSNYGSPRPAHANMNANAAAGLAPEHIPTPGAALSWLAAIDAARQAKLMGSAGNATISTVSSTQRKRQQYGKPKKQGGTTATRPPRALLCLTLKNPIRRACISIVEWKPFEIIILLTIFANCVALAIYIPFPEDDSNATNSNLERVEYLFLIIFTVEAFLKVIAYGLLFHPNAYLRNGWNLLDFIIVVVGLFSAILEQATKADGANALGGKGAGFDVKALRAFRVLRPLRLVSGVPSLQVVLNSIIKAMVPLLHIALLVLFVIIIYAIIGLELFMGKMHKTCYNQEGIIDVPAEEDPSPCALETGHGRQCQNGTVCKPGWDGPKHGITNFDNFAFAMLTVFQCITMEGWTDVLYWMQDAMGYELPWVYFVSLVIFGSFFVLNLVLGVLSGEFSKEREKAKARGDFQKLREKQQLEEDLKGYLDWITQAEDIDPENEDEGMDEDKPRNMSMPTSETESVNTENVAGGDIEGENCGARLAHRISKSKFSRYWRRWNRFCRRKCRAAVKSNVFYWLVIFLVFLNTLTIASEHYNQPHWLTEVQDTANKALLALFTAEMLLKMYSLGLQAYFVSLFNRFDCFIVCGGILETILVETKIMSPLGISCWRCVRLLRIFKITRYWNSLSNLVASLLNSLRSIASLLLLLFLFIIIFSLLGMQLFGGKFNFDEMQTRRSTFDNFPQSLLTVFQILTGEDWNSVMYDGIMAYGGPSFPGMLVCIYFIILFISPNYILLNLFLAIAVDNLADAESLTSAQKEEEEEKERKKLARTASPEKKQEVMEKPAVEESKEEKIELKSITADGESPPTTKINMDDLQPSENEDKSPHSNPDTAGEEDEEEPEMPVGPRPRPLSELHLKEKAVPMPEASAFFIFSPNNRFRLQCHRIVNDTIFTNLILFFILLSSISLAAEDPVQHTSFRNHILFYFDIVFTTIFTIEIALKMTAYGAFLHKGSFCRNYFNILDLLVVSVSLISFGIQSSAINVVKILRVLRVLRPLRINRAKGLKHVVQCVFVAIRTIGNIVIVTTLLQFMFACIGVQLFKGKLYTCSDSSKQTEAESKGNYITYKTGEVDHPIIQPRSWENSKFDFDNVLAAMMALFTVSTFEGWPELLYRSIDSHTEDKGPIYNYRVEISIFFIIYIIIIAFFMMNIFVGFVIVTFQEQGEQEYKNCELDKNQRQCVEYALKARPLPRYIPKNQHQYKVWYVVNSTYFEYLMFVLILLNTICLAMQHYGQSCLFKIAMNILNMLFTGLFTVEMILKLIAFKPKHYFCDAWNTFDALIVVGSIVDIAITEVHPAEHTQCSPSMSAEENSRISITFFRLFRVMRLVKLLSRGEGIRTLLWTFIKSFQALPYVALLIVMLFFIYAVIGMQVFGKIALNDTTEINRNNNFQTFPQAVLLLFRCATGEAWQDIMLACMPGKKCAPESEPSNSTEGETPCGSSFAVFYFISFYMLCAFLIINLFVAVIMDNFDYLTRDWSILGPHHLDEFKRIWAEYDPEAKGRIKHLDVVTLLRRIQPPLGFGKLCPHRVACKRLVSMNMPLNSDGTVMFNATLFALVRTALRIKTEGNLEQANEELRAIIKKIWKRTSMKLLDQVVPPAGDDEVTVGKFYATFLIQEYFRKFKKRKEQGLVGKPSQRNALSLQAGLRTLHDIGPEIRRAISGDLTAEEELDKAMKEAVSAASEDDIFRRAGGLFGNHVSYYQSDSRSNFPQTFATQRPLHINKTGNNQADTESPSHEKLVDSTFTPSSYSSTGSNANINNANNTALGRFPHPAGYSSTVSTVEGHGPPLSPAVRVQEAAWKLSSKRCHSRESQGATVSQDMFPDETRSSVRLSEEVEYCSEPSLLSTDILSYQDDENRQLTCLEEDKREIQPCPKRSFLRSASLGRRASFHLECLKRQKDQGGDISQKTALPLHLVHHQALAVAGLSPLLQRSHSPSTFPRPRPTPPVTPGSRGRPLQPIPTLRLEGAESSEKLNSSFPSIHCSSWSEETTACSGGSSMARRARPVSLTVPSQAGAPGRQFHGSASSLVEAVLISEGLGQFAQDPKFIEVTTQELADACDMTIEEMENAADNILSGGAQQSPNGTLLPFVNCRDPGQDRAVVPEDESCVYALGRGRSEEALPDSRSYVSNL", "T1 sequence (P54290 25-1091 partner, other chains not shown)": "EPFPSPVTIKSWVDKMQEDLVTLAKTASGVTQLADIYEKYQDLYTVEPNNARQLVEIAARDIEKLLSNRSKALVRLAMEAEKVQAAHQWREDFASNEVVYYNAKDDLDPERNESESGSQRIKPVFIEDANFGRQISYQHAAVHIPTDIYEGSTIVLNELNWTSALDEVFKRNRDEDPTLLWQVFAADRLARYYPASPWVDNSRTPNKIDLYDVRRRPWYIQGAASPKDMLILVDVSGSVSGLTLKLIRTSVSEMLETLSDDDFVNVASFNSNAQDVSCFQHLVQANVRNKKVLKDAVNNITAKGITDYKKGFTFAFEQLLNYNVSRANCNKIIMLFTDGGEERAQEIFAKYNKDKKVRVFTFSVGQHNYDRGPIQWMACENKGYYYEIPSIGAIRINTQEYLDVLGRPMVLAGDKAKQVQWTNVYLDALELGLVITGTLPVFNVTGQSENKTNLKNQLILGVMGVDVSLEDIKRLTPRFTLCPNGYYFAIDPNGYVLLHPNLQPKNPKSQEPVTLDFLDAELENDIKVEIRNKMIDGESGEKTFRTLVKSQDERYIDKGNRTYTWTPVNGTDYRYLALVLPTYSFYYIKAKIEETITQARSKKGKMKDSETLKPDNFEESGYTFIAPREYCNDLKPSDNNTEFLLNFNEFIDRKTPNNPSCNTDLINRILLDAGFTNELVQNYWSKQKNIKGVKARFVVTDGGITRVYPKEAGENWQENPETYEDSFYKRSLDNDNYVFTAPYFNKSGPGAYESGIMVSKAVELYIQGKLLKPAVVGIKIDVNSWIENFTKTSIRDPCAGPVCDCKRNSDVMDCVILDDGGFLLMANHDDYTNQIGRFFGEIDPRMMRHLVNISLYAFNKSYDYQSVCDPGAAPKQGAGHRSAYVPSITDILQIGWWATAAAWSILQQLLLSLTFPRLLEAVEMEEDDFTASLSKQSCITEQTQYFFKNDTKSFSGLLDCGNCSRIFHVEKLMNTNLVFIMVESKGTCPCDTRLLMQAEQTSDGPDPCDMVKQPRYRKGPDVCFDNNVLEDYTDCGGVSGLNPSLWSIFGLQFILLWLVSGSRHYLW", "assay": "L‐type calcium current (I CaL), patch‐clamp in rat ventricular myocytes", "assay_type": "cell-based", "conditions": "for effect on calcium current (ICaL) at various test potentials: rat cardiomyocytes; for inhibition at 10 µM: rat ventricular CMs", "text": "Manual patch‐clamp recordings of membrane currents (I NCX, L‐type Ca^2+ channel current [I CaL], human cardiac sodium 1.5 current [I Na], and I hERG) were undertaken using either an Axopatch 200B or Axopatch ID amplifier (Molecular Devices, USA), using the whole‐cell configuration. Cells were at least initially (except when recording I Na) perfused with an extracellular solution consisting of (in mM) 143 NaCl, 4 KCl, 1.8 CaCl2, 1.2 MgCl2, 5 glucose, and 10 HEPES (pH 7.4 with NaOH; osmolarity adjusted to 301 ± 3 mOsm). A slightly modified version was used for the rat ventricular CMs (in mM: 144 NaCl, 0.4 NaH2PO4, 4.0 KCl, 1.8 CaCl2, 0.53 MgSO4, 5.5 glucose, and 5.0 HEPES). Patch pipettes were pulled with a P‐2000 or P‐97 micropipette puller (Sutter Instruments, USA) from borosilicate glass capillaries and had resistances of between 2 and 4 MΩ when filled with any of the pipette solutions (see below). The data were filtered at 1 or 2 kHz and digitized at 10 kHz with acquisition and analysis performed by use of pClamp software (Versions 8–10; Molecular Devices; RRID:SCR_011323).\nI CaL was recorded from hiPSC‐derived CMs (at room temperature, n = 2) and rat ventricular myocytes at 1 μM (n = 3; 5 cells) and at 10 μM (n = 4; 6 cells) in an extracellular solution supplemented with 4‐aminopyridine (3 mM) at 37 °C. The pipette solution used for hiPSC‐derived CMs consisted (in mM) (pH 7.2; osmolarity adjusted to 293 mOsm) 110 KCl, 40 KOH, 20 TEACI, 3 MgATP, 10 EGTA, and 5 HEPES. The composition of the pipette solution used for rat CMs was (in mM) 125 CsCl, 20 TEACI, 5 MgATP, 10 EGTA, and 10 HEPES; the pH was adjusted to 7.2 using CsOH. I CaL was evoked by a 400‐ms depolarization process to 0 mV from a holding potential of −40 mV every 5 s or, in the case of the rat CMs, by 400 ms; depolarizations to potentials ranging from −35 to 55 mV occurred after a prepulse to −40 mV, from the holding potential of −80 mV.\nThe effect of ORM-11372 on the inward calcium current (ICaL) in isolated rat cardiomyocytes. ICaL current was evoked by 400 ms-long depolarizing voltage pulses to various test potentials, ranging from -35 mV to 55 mV. The holding potential was -80 mV. A short prepulse to -40 mV served to inactivate the Na+ current (the top part of the panel A). Examples of originals currents are shown in the lower part of panel A, before and after 1 µM ORM-11372 exposure in an isolated rat myocyte. Panels B and C illustrate the current-voltage relation (I-V curves) of ICaL in the absence and presence of 1 µM and 10 µM ORM-11372 (panels B and C, […]\nare means ± standard errors of the means.\n(1 picture or pasted object on this page, not shown here)"}, "5‐HT2B receptor": {"target": "5‐HT2B receptor (Homo sapiens, UniProt P41595)", "sequence (P41595 whole entry)": "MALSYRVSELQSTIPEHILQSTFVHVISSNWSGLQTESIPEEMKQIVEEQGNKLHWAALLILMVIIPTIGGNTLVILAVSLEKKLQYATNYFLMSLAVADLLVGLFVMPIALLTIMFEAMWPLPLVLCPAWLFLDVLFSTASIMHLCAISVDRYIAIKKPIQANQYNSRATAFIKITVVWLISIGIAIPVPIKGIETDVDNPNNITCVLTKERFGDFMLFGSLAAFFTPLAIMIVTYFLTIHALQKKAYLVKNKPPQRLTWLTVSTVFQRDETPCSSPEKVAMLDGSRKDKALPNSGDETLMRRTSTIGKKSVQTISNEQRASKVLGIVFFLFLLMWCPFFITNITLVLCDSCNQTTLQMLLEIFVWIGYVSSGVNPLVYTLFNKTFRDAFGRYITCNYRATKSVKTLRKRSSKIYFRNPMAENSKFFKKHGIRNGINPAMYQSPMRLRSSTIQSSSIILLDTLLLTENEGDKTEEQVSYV", "assay": "5‐HT2B agonist and antagonist assay, intracellular calcium in CHO–5‐HT2B cells", "assay_type": "cell-based", "text": "The hERG‐encoded voltage‐dependent potassium channel current (I hERG) cells to be studied were harvested with Detachin solution and either diluted with a volume of CHO cell serum‐free media (supplemented with 100 IU·ml^−1 of penicillin/streptomycin and 25‐mM HEPES) to obtain cells, for which the cell density was ~4 x10^6 cells·ml^−1, or plated on glass coverslips and used on the following 1–2 days. HEK 293 cells were transiently transfected using lipofectamine (Invitrogen, USA), with a human sodium voltage‐gated channel subunit 5 (hSCN5) A (transcript variant 2)‐containing plasmid, in Optimem medium. After a 5‐h incubation period, the transfection medium was replaced with the normal growth medium. The cells were harvested by trypsinization, centrifuged and resuspended in the appropriate extracellular solution for performing studies the next day. CHO–5‐HT2B cells were plated into 96‐well plates on the previous day, at a density of 4 x10^4 cells per well, with a modified version of the growth media.\nChanges in the intracellular calcium concentration of CHO–5‐HT2B cells in the probenecid‐R inger were measured, using Fluo‐4 or calcium 3 dyes and the FLEXstation, at 37°C. […]"}},
  "data": [
    {"molecule": "Nc1cccc(-c2ccc(CNc3ccc(F)cc3)o2)c1", "note": "[ORM‐11372]", "values": [
      {"measurement": "effect on calcium current (ICaL) at various test potentials", "setting": "[1]; 1 µM, n=3, 5 cells", "result": "did not change"},
      {"measurement": "L-type calcium current amplitude, MEAN", "setting": "[1]; 1 µM, test potential 0 mV, 5 cells, control -1375.4", "result": -1268.0, "unit": "pA"},
      {"measurement": "L-type calcium current amplitude, MEAN", "setting": "[1]; 1 µM, test potential 5 mV, 5 cells, control -1319.9", "result": -1233.1, "unit": "pA"},
      {"measurement": "L-type calcium current amplitude, MEAN", "setting": "[1]; 1 µM, test potential 10 mV, 5 cells, control -1195.5", "result": -1106.0, "unit": "pA"},
      {"measurement": "L-type calcium current amplitude, MEAN", "setting": "[1]; 1 µM, test potential 15 mV, 5 cells, control -1031.3", "result": -942.5, "unit": "pA"},
      {"measurement": "L-type calcium current amplitude, MEAN", "setting": "[1]; 1 µM, test potential 20 mV, 5 cells, control -839.7", "result": -771.6, "unit": "pA"},
      {"measurement": "L-type calcium current amplitude, MEAN", "setting": "[1]; 1 µM, test potential 25 mV, 5 cells, control -655.3", "result": -598.7, "unit": "pA"},
      {"measurement": "L-type calcium current amplitude, MEAN", "setting": "[1]; 1 µM, test potential 30 mV, 5 cells, control -482.4", "result": -440.5, "unit": "pA"},
      {"measurement": "L-type calcium current amplitude, MEAN", "setting": "[1]; 1 µM, test potential 35 mV, 5 cells, control -321.0", "result": -290.5, "unit": "pA"},
      {"measurement": "L-type calcium current amplitude, MEAN", "setting": "[1]; 1 µM, test potential 40 mV, 5 cells, control -184.5", "result": -165.5, "unit": "pA"},
      {"measurement": "L-type calcium current amplitude, MEAN", "setting": "[1]; 1 µM, test potential 45 mV, 5 cells, control -86.9", "result": -75.9, "unit": "pA"},
      {"measurement": "L-type calcium current amplitude, MEAN", "setting": "[1]; 1 µM, test potential 50 mV, 4 cells, control -2.1", "result": -6.3, "unit": "pA"},
      {"measurement": "L-type calcium current amplitude, MEAN", "setting": "[1]; 1 µM, test potential 55 mV, 4 cells, control 73.5", "result": 65.1, "unit": "pA"},
      {"measurement": "L-type calcium current amplitude, MEAN", "setting": "[1]; 1 µM, test potential -5 mV, 5 cells, control -1356.0", "result": -1228.2, "unit": "pA"},
      {"measurement": "L-type calcium current amplitude, MEAN", "setting": "[1]; 1 µM, test potential -10 mV, 5 cells, control -1170.3", "result": -1150.4, "unit": "pA"},
      {"measurement": "L-type calcium current amplitude, MEAN", "setting": "[1]; 1 µM, test potential -15 mV, 5 cells, control -958.3", "result": -852.5, "unit": "pA"},
      {"measurement": "L-type calcium current amplitude, MEAN", "setting": "[1]; 1 µM, test potential -20 mV, 5 cells, control -659.5", "result": -595.2, "unit": "pA"},
      {"measurement": "L-type calcium current amplitude, MEAN", "setting": "[1]; 1 µM, test potential -25 mV, 5 cells, control -416.8", "result": -428.2, "unit": "pA"},
      {"measurement": "L-type calcium current amplitude, MEAN", "setting": "[1]; 1 µM, test potential -30 mV, 5 cells, control -247.1", "result": -254.7, "unit": "pA"},
      {"measurement": "L-type calcium current amplitude, MEAN", "setting": "[1]; 1 µM, test potential -35 mV, 5 cells, control -143.0", "result": -137.4, "unit": "pA"},
      {"measurement": "effect on calcium current (ICaL) at various test potentials", "setting": "[1]; 10 µM, n=4, 6 cells", "result": "significantly decreased"},
      {"measurement": "effect on calcium current (ICaL) at various test potentials", "setting": "[1]; 10 µM, n=4, 6 cells, listed as ORM-11372", "result": "moderately decreased"},
      {"measurement": "L-type calcium current amplitude, MEAN", "setting": "[1]; 10 µM, test potential 0 mV, 6 cells, control -1895.4", "result": -1170.0, "unit": "pA"},
      {"measurement": "L-type calcium current amplitude, MEAN", "setting": "[1]; 10 µM, test potential 5 mV, 6 cells, control -1875.0", "result": -1197.8, "unit": "pA"},
      {"measurement": "L-type calcium current amplitude, MEAN", "setting": "[1]; 10 µM, test potential 10 mV, 6 cells, control -1771.9", "result": -1118.9, "unit": "pA"},
      {"measurement": "L-type calcium current amplitude, MEAN", "setting": "[1]; 10 µM, test potential 15 mV, 6 cells, control -1587.7", "result": -1003.2, "unit": "pA"},
      {"measurement": "L-type calcium current amplitude, MEAN", "setting": "[1]; 10 µM, test potential 20 mV, 6 cells, control -1357.7", "result": -873.9, "unit": "pA"},
      {"measurement": "L-type calcium current amplitude, MEAN", "setting": "[1]; 10 µM, test potential 25 mV, 6 cells, control -1116.0", "result": -718.1, "unit": "pA"},
      {"measurement": "L-type calcium current amplitude, MEAN", "setting": "[1]; 10 µM, test potential 30 mV, 6 cells, control -896.3", "result": -561.5, "unit": "pA"},
      {"measurement": "L-type calcium current amplitude, MEAN", "setting": "[1]; 10 µM, test potential 35 mV, 6 cells, control -698.8", "result": -429.4, "unit": "pA"},
      {"measurement": "L-type calcium current amplitude, MEAN", "setting": "[1]; 10 µM, test potential 40 mV, 6 cells, control -525.3", "result": -320.9, "unit": "pA"},
      {"measurement": "L-type calcium current amplitude, MEAN", "setting": "[1]; 10 µM, test potential 45 mV, 6 cells, control -374.5", "result": -237.0, "unit": "pA"},
      {"measurement": "L-type calcium current amplitude, MEAN", "setting": "[1]; 10 µM, test potential 50 mV, 6 cells, control -291.0", "result": -189.1, "unit": "pA"},
      {"measurement": "L-type calcium current amplitude, MEAN", "setting": "[1]; 10 µM, test potential 55 mV, 6 cells, control -158.4", "result": -114.5, "unit": "pA"},
      {"measurement": "L-type calcium current amplitude, MEAN", "setting": "[1]; 10 µM, test potential -5 mV, 6 cells, control -1762.2", "result": -1043.1, "unit": "pA"},
      {"measurement": "L-type calcium current amplitude, MEAN", "setting": "[1]; 10 µM, test potential -10 mV, 6 cells, control -1447.7", "result": -807.4, "unit": "pA"},
      {"measurement": "L-type calcium current amplitude, MEAN", "setting": "[1]; 10 µM, test potential -15 mV, 6 cells, control -1127.6", "result": -525.5, "unit": "pA"},
      {"measurement": "L-type calcium current amplitude, MEAN", "setting": "[1]; 10 µM, test potential -20 mV, 6 cells, control -920.0", "result": -316.1, "unit": "pA"},
      {"measurement": "L-type calcium current amplitude, MEAN", "setting": "[1]; 10 µM, test potential -25 mV, 6 cells, control -667.6", "result": -184.1, "unit": "pA"},
      {"measurement": "L-type calcium current amplitude, MEAN", "setting": "[1]; 10 µM, test potential -30 mV, 6 cells, control -368.9", "result": -115.9, "unit": "pA"},
      {"measurement": "L-type calcium current amplitude, MEAN", "setting": "[1]; 10 µM, test potential -35 mV, 6 cells, control -156.2", "result": -64.1, "unit": "pA"},
      {"measurement": "inhibition at 1 µM", "setting": "[1]; rat CMs, 1 μM, 0 mV, read-out: inhibition of inward I CaL", "result": 7.8, "unit": "%"},
      {"measurement": "inhibition at 10 µM", "setting": "[1]; test potentials 0 to 40 mV", "result": "36 to 39", "unit": "%"},
      {"measurement": "inhibition at 10 µM", "setting": "[1]; test potentials −35 to −20 mV", "result": "59 to 69", "unit": "%"},
      {"measurement": "agonist activity at 5‐HT2B receptors", "setting": "5‐HT2B receptor", "result": "no agonist activity"},
      {"measurement": "inhibition at 10 µM", "setting": "5‐HT2B receptor; 10 μM, evoked by 10‐nM 5‐HT, read-out: inhibition of 5‐HT2B receptor‐mediated increase in intracellular calcium", "result": 38, "unit": "%"}
    ]}
  ]
}
